Literature values as cited in EP0262930B1, “Process for forming a colour positive image” (KONICA CORPORATION, priority 1986, dated 1988).

Conditions: partition coefficient n-octanol/water; solvents not desired in the color developing solution

CCCCCO [1-Pentanol]
log P: log P 0.4 or more

OCCOCc1ccccc1 [2-Benzyloxyethanol]
log P: log P 0.41

OCc1ccccc1 [Benzyl alcohol]
log P: log P 1.0

NCc1ccccc1 [Benzylamine]
log P: log P 0.4 or more

CCCCOCCOCCO [Diethylene glycol monobutyl ether]
log P: log P 0.41.

Oc1ccccc1 [Phenol]
log P: log P 0.4 or more

OCc1ccc(O)cc1 [p-Hydroxybenzyl alcohol]
log P: log P 0.4 or more

Cc1ccc(CO)cc1 [p-Tolylcarbinol]
log P: log P 1.36
